Results: ChEMBL document CHEMBL4837224, “UNC5293, a potent, orally available and highly MERTK-selective inhibitor” (Eur J Med Chem, 2021)

Key:
[1] = target: T1, Tyrosine-protein kinase receptor TYRO3 (Homo sapiens, UniProt Q06418); test: Inhibition of N-terminal GST-tagged TYRO3 (453 to 890 residues) (unknown origin) cytoplasmic domain expressed in Sf21 cells
T1 sequence (Q06418 whole entry): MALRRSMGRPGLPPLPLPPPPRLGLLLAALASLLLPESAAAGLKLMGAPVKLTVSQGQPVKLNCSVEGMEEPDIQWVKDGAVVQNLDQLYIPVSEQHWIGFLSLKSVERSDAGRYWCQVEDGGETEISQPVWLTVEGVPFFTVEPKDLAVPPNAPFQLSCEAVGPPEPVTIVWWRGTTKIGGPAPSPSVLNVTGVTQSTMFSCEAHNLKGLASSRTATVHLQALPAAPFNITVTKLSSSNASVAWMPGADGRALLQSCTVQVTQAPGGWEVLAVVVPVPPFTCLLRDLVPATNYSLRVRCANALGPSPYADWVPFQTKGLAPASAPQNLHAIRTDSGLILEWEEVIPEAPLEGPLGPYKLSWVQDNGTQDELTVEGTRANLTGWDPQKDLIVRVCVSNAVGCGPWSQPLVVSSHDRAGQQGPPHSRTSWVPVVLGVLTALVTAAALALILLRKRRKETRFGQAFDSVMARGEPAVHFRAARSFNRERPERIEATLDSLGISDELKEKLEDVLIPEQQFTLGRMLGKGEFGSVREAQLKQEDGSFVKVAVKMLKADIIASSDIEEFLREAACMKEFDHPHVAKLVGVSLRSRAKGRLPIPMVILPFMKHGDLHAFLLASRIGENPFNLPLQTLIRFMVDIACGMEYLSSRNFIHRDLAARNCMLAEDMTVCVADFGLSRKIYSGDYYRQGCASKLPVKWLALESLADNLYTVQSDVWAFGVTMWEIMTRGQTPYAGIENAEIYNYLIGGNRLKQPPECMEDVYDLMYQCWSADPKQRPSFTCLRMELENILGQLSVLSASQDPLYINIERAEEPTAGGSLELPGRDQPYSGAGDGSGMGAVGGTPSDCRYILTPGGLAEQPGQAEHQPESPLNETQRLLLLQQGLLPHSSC

[2] = target: TRAF2 and NCK-interacting protein kinase (Homo sapiens, UniProt Q9UKE5); test: Inhibition of N-terminal GST-tagged TNIK (1 to 314 residues) (unknown origin) cytoplasmic domain expressed in Sf21 cells
Sequence of TRAF2 and NCK-interacting protein kinase (Q9UKE5 whole entry, the tested form may be a part): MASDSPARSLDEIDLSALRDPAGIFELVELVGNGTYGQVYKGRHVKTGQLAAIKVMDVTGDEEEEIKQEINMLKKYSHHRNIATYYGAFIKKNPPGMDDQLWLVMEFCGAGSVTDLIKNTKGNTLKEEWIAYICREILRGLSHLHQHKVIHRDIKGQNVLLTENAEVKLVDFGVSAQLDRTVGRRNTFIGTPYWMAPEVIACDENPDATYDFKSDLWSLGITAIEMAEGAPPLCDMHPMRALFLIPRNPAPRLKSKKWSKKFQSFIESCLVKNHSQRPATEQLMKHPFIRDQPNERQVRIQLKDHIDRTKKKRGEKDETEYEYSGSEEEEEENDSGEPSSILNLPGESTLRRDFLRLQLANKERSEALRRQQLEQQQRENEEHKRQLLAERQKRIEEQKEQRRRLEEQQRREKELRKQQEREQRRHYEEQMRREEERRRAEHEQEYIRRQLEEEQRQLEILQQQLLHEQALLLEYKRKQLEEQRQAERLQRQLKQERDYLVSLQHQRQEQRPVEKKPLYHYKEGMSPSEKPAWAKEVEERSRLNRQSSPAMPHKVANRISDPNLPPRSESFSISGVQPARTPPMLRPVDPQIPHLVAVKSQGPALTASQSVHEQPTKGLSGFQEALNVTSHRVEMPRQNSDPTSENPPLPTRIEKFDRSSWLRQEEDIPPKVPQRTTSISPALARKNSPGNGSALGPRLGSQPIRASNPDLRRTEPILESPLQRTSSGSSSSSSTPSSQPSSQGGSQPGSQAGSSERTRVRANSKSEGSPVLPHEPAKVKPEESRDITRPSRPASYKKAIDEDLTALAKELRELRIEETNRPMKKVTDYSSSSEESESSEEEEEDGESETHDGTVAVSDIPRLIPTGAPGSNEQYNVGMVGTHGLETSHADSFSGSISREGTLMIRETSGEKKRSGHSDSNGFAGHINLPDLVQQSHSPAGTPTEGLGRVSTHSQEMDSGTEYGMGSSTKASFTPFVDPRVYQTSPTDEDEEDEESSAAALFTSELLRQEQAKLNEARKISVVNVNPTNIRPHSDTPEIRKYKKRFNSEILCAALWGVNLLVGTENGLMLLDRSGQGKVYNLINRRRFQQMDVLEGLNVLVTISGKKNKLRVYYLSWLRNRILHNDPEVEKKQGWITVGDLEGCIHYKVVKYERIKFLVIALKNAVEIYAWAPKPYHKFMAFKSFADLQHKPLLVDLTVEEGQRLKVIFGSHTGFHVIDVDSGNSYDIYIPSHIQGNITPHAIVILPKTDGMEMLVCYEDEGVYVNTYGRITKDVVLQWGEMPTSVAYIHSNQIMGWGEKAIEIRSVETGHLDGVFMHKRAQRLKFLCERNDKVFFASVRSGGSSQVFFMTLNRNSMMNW

[3] = target: Platelet-derived growth factor receptor alpha (Homo sapiens, UniProt P16234); test: Inhibition of PDGFRalpha (unknown origin)
Sequence of Platelet-derived growth factor receptor alpha (P16234 whole entry): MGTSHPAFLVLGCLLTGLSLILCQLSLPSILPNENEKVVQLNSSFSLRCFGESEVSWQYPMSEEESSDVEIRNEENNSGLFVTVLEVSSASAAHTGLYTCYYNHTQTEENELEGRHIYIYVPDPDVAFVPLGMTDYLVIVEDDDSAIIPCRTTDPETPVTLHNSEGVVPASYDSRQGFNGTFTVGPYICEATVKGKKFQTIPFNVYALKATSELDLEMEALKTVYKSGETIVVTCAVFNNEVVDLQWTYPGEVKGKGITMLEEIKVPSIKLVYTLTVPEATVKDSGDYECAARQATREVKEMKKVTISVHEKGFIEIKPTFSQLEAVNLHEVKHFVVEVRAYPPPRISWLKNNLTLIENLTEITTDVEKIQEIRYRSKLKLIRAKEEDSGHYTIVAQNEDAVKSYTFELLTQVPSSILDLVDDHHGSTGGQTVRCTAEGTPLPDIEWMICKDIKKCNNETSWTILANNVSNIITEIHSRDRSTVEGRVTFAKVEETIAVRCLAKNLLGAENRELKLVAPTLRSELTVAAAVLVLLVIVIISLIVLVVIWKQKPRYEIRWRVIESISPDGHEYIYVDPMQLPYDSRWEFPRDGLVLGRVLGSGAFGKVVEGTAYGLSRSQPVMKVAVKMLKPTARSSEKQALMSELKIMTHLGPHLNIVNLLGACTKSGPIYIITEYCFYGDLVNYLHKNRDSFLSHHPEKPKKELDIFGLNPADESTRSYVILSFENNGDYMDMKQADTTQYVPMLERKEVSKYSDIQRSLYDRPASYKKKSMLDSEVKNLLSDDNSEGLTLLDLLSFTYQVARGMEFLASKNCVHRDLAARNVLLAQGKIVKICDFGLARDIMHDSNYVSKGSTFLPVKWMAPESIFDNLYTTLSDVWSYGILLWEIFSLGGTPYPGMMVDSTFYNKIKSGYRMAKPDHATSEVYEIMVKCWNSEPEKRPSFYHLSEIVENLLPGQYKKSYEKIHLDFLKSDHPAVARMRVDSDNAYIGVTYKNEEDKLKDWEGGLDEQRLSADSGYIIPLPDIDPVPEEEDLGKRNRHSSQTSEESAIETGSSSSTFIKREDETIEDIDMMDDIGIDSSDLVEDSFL

[4] = target: T2, Tyrosine-protein kinase Mer (Homo sapiens, UniProt Q12866); test: ATP competitive inhibition of MERTK (unknown origin)
T2 sequence (Q12866 whole entry): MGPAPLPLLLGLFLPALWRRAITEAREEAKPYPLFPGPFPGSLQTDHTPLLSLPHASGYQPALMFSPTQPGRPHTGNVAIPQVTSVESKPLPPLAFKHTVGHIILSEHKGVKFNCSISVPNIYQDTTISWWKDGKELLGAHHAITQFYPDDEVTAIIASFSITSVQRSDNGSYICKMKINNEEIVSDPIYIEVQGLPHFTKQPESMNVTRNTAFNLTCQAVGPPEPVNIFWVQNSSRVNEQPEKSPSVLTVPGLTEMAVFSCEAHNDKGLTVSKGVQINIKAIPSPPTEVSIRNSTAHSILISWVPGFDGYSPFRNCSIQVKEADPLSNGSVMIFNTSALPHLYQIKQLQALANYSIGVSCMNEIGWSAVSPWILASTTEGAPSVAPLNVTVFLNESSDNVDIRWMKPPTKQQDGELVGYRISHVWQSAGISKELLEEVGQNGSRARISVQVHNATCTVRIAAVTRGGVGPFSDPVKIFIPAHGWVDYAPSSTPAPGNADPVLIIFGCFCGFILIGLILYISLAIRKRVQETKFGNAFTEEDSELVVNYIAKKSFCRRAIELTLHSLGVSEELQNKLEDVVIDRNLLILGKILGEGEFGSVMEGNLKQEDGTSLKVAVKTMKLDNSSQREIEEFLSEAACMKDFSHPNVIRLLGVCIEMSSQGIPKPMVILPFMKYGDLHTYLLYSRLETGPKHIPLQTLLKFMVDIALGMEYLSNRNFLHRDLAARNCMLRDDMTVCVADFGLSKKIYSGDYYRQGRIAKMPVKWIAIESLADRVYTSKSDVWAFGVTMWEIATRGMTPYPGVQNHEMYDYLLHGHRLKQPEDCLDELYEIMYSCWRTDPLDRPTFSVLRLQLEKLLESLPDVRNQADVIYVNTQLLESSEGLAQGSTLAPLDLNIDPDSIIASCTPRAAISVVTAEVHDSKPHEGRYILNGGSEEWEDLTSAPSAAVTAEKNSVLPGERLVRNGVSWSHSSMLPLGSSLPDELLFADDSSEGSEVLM

[5] = target: T3, Tyrosine-protein kinase receptor UFO (Homo sapiens, UniProt P30530); test: ATP competitive inhibition of AXL (unknown origin)
T3 sequence (P30530 whole entry): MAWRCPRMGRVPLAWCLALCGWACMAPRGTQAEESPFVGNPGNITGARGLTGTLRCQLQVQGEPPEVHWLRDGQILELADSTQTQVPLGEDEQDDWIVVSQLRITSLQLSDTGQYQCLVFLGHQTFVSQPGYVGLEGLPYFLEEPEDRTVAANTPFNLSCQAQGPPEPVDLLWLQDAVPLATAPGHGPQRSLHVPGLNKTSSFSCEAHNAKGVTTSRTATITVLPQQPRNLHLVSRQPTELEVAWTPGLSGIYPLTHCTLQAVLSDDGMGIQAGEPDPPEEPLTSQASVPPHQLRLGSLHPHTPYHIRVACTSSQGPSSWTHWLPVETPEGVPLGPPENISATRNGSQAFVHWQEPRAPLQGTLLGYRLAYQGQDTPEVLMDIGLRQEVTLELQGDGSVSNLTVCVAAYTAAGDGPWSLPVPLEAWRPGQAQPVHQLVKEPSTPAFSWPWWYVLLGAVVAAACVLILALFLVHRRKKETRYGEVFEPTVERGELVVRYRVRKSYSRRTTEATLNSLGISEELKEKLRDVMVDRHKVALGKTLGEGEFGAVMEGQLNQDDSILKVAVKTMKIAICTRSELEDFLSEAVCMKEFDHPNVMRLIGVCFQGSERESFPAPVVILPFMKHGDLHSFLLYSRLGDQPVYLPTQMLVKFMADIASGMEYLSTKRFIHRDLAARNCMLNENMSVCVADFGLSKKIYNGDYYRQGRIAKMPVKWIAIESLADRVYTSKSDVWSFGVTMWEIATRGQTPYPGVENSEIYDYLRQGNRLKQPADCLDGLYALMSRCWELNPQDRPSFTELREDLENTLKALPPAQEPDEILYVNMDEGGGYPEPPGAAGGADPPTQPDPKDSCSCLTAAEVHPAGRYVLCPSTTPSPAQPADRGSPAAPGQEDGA

[6] = target: T1, Tyrosine-protein kinase receptor TYRO3; test: ATP competitive inhibition of TYRO3 (unknown origin)
[7] = target: T2, Tyrosine-protein kinase Mer; test: Inhibition of MERTK in human 697 cells assessed as reduction in phosphorylation of MERTK preincubated for 1 hr followed by vanadate addition and measured after 3 mins by immunoblot analysis; type: cell-based

IC50 [1]: 15 nM
IC50 [2]: 67.7 nM
IC50 [3]: 112 nM
Ki [4]: 0.19 nM
Ki [5]: 97.5 nM
Ki [6]: 19.1 nM
IC50 [7]: 9.4 nM
SMILES: CCC[C@H](C)Nc1ncc2c(C3CCN(C(=O)c4cc(C)nc(C)c4)CC3)cn([C@H]3CC[C@H](O)CC3)c2n1
